Values quoted from earlier work, collected in publication PMC12241124 (Frontiers in Microbiology, 2025).

Settings: ref Mygind et al., 2005

Substance: plectasin
- terminal serum elimination half-life: 51 min
